Experimental data from patent publication US11236055B2 (Venenum Biodesign, LLC, priority 2016, dated 2022).
Like-named read-outs stand apart in the source and are kept apart here.

Key:
[1] = Absorption vs. first pass metabolism: Cmax with and without 1-aminobenzotriazole (ABT) pre-treatment; type: in vivo, mouse; conditions: ICR, mouse, plasma; lean mice receiving ABT (150 mg/kg) 2 h before compound, 10 mg/kg oral
Description: Absorption Vs. First Pass Metabolism
In this study, the absorption was examined as compared to first pass metabolism of the compounds of the present invention. ICR mice (Hilltop) were pre-treated with 1-aminobenzotriazole (ABT), a nonselective inhibitor of cytochrome P450 enzymes to inhibit Cyp450-mediated degradation of the compounds in liver.
ABT was administered at 150 mg/kg in 5 mL/kg of 0.04% ethanol in 0.5% methyl cellulose (w/v) by oral gavage, 2 hours prior to test compound administration. The compounds 20AA and 20AC were administered by oral gavage at 10 mg/kg in 10 mL/kg of 20% PEG400/80% (0.5% (w/v) CMC containing 0.25% (v/v) Tween 80) (v/v), 2 hours after the ABT treatment. Blood was collected via orbital bleeding at predose, 0.25, 0.5, 1, 2, and 4 hours post-dose and the quantification of compound levels in plasma was accomplished by means of LC-MS/MS analysis as described in Example 59. Reference compound “Propranolol” that is known to be metabolized by Cyp450 was used as a positive control.
FIG. 4 depicts the Cmax (nM) of the compounds of the present invention with and without ABT pre-treatment.

[2] = Portal vein versus systemic pharmacokinetics in hepatic portal vein cannulated rats; type: in vivo, rat; conditions: portal vein cannulated male CD (SD) rats, 10 mg/kg oral; for Cmax / Tmax / AUC(0-t): rat; for AUC(0-t): read-out: AUC (0-7 h)
Description: Low Level of Compounds is Attributed to Low Intestinal Absorption
In this study, it was determined if the low plasma level of the compounds of the present invention is due to low absorption in the gut, or due to the first pass effect (i.e., absorption followed by a rapid degradation of compounds by liver). Hepatic portal vein cannulated male CD (SD) rats obtained from Charles River Laboratory were utilized. In brief, Compound 20BG was administered orally at 10 mg/kg, and blood was obtained simultaneously from the portal vein and systemic circulation (retro-orbital sinus) at pre-dose, 0.25, 0.5, 1, 2, and 4 hours post-dose, in EDTA coated tubes. The samples were processed into plasma and quantification of compound levels in the plasma was accomplished by means of LC-MS/MS analysis as described in Example 59.

DIO mice [3] = assay: Weight loss after multiple days of dosing in DIO mice; type: in vivo, mouse; conditions: DIO mice on high fat diet, oral BID for 12 days
Description: Monitoring of Weight Loss after Multiple Days of Dosing Compounds
Compounds of the present invention were dosed for multiple days and were evaluated for their ability to cause mice to lose weight. In the next series of studies (Examples 66-70), Male DIO mice were received at 12 weeks of age (from Taconic), and were single-housed at the testing facility and acclimated for at least 2 weeks. The mice were provided a high fat diet [Research Diet D12492 (60% Fat kcal)] while in the testing facility. Before the study initiation, the animals were randomized into 5 experimental groups by body weight. The vehicle group contained only 0.5% carboxymethylcellulose (medium viscosity)+0.25% Tween-80. The second group contained 10 mg/kg of the DPP-IV inhibitor Linagliptin while the third group contained 10 mg/kg Compound 20BG. The fourth group contained the combination of 10 mg/kg Linagliptin and 10 mg/kg Compound 20BG. The fifth group was the positive control for weight loss, Liraglutide. All mice, except the Liraglutide group, were dosed BID at approximately 6:00 am and again at approximately […]. The positive control liraglutide was administered at a dose of 0.2 mg/kg subcutaneously in the afternoon.
Compounds of the present invention were evaluated for their ability to cause mice to lose weight. Mice were dosed compounds for 12 days and body weights were recorded twice a week.

DIO mice [4] = assay: Food intake after multiple days of dosing in DIO mice; type: in vivo, mouse; conditions: DIO mice on high fat diet, oral BID for 12 days
Description: Monitoring of Food Intake after Multiple Days of Dosing Compounds
Compounds of the present invention were dosed for multiple days and were evaluated for their ability to cause mice to have a lower food intake. Mice were dosed compounds for 12 days as per the protocol in Example 66.
The HFD (Research Diets, D12492, 60% fat kcal) is placed at the bottom of the cage of a singly-housed animal. The remaining food in each cage is recovered and weighed again at the same time of day 3 or 4 days later. The difference in the starting and ending food weight represents the amount of food consumed. Daily food intake is calculated by averaging over a 3 or 4 day period every week.

[5] = portal vein plasma, Portal Vein bleed
[6] = systemic plasma (retro-orbital sinus), Peripheral bleed (retro-orbital sinus)

Compound | Cmax [1] | Tmax [1] | absorption (PK in portal vein and systemic circulation) [2] | Cmax [2, 5] | Tmax [2, 5] | AUC(0-t) [2, 5] | Cmax [2, 6] | Tmax [2, 6] | AUC(0-t) [2, 6] | body weight change (DIO mice [3]) | food intake (DIO mice [4])
Cc1cnccc1-c1cccc(C(C)(C)N(CCCC(=O)NCCS(=O)(=O)O)S(=O)(=O)c2ccccc2C(F)(F)F)c1 [Compound 20AA, 2-(4-(N-(2-(3-(3-methylpyridin-4-yl)phenyl)propan-2-yl)-2-(trifluoromethyl)phenylsulfonamido)butanamido)ethanesulfonic acid] | 2.6 nM | 15 min |  |  |  |  |  |  |  |  | 
CCc1cnccc1-c1cccc([C@H](C)N(CCCC(=O)NCCS(=O)(=O)NCC(=O)O)S(=O)(=O)c2ccccc2C(F)(F)F)c1 [Compound 20BG] |  |  | very low absorption | 7.6 ± 3.6 ng/mL | 15 to 120 min | 0.0301 ± 0.0009 µg·h/mL | 1.3 ± 0.7 ng/mL | 15 to 60 min | 0.0031 ± 0.0108 µg·h/mL | modest weight loss | no significant effect
